≈ marks a conversion by molar mass, not a printed value.

The conditions of one data set: 25 °C.
Turning to `CC(C)(C)CCCO`, the solubility – broadly, the dissolved amount per volume that the medium holds – was 28.5 mM (≈ 3310 µg/mL).
The same measure, in the same setting: next, `CC(C)CCC(C)O` (stereo not drawn): 41.9 mM (≈ 4870 µg/mL); `CCCCC(C)(C)O`: 83.5 mM (≈ 9700 µg/mL); `CCC[C@](C)(O)CC`: 101 mM (≈ 11700 µg/mL).
The same measure, in the same setting: next, `CCCC(O)CCC`: 40.4 mM (≈ 4700 µg/mL).
Take `CCCCCCCCCCO`: the solubility was 0.234 mM (≈ 37 µg/mL).
On the same count and under the same terms, next, `CC=CC(O)CC` (stereo not drawn): 380 mM (≈ 38100 µg/mL); `CC(C)CCCO`: 73.4 mM (≈ 7500 µg/mL).
The same measure, in the same setting: next, `CCCCCCCCO`: 4.15 mM (≈ 540 µg/mL).
Still for that read-out and setting: next, `C=CC(O)C(C)C` (stereo not drawn): 305 mM (≈ 30600 µg/mL); `CC(C)C(C)O` (stereo not drawn): 635 mM (≈ 56000 µg/mL).

Staying with this data set, now noted: 28 °C.
As to `CCCCC(C)(O)CC` (stereo not drawn), the solubility amounted to 23.2 mM (≈ 3020 µg/mL).

The data set is the same for the next values; noted with them: 30 °C.
For `CCCCCC(C)(C)O`, the solubility is 19.1 mM (≈ 2490 µg/mL).

The record behind these values is the OPERA property sets (Mansouri et al. 2018).
